# From patent US11447533B2, “Antimicrobial and anticancer peptides and conjugates and compositions, methods, articles and kits relating thereto” (George Mason Research Foundation, Inc., priority 2018, dated 2022)
# “Also recorded” adds a separate entry of the source.
# What was measured:
# [1] = Endotoxin binding: competitive displacement of BODIPY TR-Cadaverine from LPS; parameters: species or system Escherichia coli; settings: 5 μM peptide; for LPS binding (BC displacement), in words: 10 μM BC, 10 μg/mL LPS, low ionic-strength 10 mM Na-PO4; for increase in affinity for LPS compared to the peptide lacking the hydrophobic tail: vs ATRA1 / ATRA1-R3W2
# Experimental: FIGS. 2A-2B are graphs showing endotoxin binding. The figures depict the competitive displacement of BC from LPS/LTA by the peptides. 5 μM of each peptide was incubated with 10 μM BC and 10 μg/mL LPS from E. coli (0111:B4) or LTA from S. aureus. Fluorescence intensity was measured at excitation=580 nm and emission=620 nm. 10 μM BC without endotoxin was used as 100% displacement while 10 μM BC with 10 μg/mL LPS/LTA without any peptide as 0% displacement and the % displacement of BC by each peptide was calculated accordingly. […] had been used as a positive control. The horizontal dotted line coincides with the % displacement of BC by ATRA1 on the y-axis.
# FIGS. 6A-6B are graphs showing endotoxin (LPS (FIG. 6A) and LTA (FIG. 6B)) binding. Competitive displacement of BC from LPS/LTA. In each case, 5 μM peptide was incubated with 10 μM BC and 10 μg/mL LPS from E. coli (0111:B4) or LTA from S. aureus. Fluorescence intensity was measured using excitation=580 nm and emission=620 nm. As a positive control 10 μM BC without endotoxin was used as a reference for 100% displacement while 10 μM BC with 10 μg/mL LPS/LTA without any peptide as a negative control and a reference for 0% displacement. These controls were used to calculate % BC displacement for each peptide.
# Endotoxin Binding. The binding of endotoxin (LPS/LTA) was evaluated using a fluorogenic conjugateBODIPY TR-Cadaverine (BC). BC binds endotoxin loses its fluorescence. The peptide competitively displaces BC from endotoxin and the fluorescence is reestablished. Competitive inhibition of endotoxin-BC binding was utilized due to presence of peptides already in complexion with endotoxin. 25 μL of 20 μM of peptides in 10 mM Na—PO4 buffer were incubated with 25 μL of LPS (40 μg/mL) or LTA (40 μg/mL) for 15 min and then added with 50 μL of BC (20 uM). Peptides bind to LPS or LTA and competitively prevents BC bind to the endotoxin. BC loses its fluorescence on binding to endotoxin. The fluorescence intensity of the unbound BC was measured at excitation=580 nm and emission=620 nm.
# BC contains two functional moieties: BODIPY (boron-dipyrromethene) and cadaverine connected via a carboxamide. BODIPY is the fluorophore of BC and fluoresces in the free state in solution but loses fluorescence when bound to LPS/LTA. The competitive displacement of BC from LPS/LTA by AMPs and thus regeneration of the fluorescence has frequently been used to estimate the binding strength of AMPs with LPS/LTA. In the present studies, 5 μM of each peptide was used to displace BC from LPS/LTA. […] Such observation contradicts the initial assumption that substitution of Lys with arginine would result in increased efficiency of LPS binding. However, with sequential substitutions of Lys with arginine, starting with ATRA1-AR, peptide variants show increased LPS binding with each additional arginine substitution. In terms of LPS binding: ATRA1-AR<ATRA1-AR2<ATRA1-AR3. In ATRA1-R3, the lysine residues at 9th, 5th and 1st positions of ATRA1 were substituted with arginine. In ATRA1-R6 all of the lysine residues were replaced with arginine.
# [2] = test system: E. coli ML35p outer membrane; assay: Outer membrane disruption (β-lactamase leakage, nitrocefin); assay type: cell-based, Escherichia coli; settings: for outer membrane disruption (β-lactamase activity) relative to HCMAB / time to reach maximum signal for nitrocefin hydrolysis: DPBS
# Experimental: Interactions with Bacterial Membranes. Interaction of the peptides with bacterial membranes in different phosphate buffers were evaluated using E. coli ML35p, constructed in our laboratory. At first, competent cells of E. coli ML35 were produced by conventional competent cell preparation method, then transformed with pBR322 plasmid. Transformed colonies were selected after growing on Luria-agar containing 50 μg/mL ampicillin. A single transformed colony was grown in presence of ampicillin first in Luria broth and then in MHBII and stored as 20% glycerol stock at −80° C. This frozen stock, on the day of the experiment, was thawed and grown in MHBII containing ampicillin up to OD600 nm=0.8-0.9, washed with PBS and then suspended in the respective buffer up to the required OD600 nm for use.
# Membrane Disruptions. The outer and the inner membrane disruptions by the peptides were evaluated by incubating bacterial suspension with peptides and then measuring the activity of enzymes leaked out of the cells. 100 μL of 10× concentration of peptide in water was incubated with 900 μL bacterial suspension (OD600 nm˜0.1) in respective buffer for 3 hours at room temperature with gentle rotation. Then the cells and debris were separated by centrifugation (10000 r.p.m. for 30 mins) and the supernatant was collected and tested for activity of enzymes that had leaked out of the bacterial cells. HCMAB was used as a positive control to cause 100% membrane disruption and water as a negative causing 0% disruption.
# The outer membrane disruption was tested by using the activity of beta-lactamase present in the periplasmic space of E. coli ML35p. Peptides when disrupt the outer membrane enough to cause beta-lactamase to come out, the degree of disruption can be measured by the virtue of the kinetics of the enzyme and using a chromogenic cephalosporin substrate called nitrocefin. β-lactamase mediated hydrolyzed product of nitrocefin has an absorbance αmax=486 nm. Supernatant collected from the incubation of peptide with bacteria was added with nitrocefin solution in DPBS and incubated at 35° C. and continuous absorbance readings. The slope of the linear section of the absorbance curve (absorbance vs time), was used as a measure of membrane disruption and the % Disruption was calculated as: Equation 7: […]
# Some of the ATRA1-variants were further tested for their ability to disrupt outer and inner membranes to form pores or disruptions sufficiently large so as to allow enzymes to leak out of their cellular compartments (cytoplasm or periplasmic space). For this purpose, two reporter molecules were used with one being the substrate of a cytoplasmic enzyme and the other was a substrate for an enzyme residing in the periplasmic space. One of the reporters, nitrocefin was the substrate for β-lactamase, which is present in the bacterial periplasm, whereas the other molecule, ONPG, was the substrate for β-galactosidase, which resides in the cytoplasm of E. coli ML35p strain. […] Similarly, β-galactosidase activity in the supernatants is evidence of inner membrane disruption and possible pore formation. When the aforesaid supernatants were tested for nitrocefin and ONPG hydrolysis, the corresponding absorbance increased with time (data not shown) indicating β-lactamase and β-galactosidase activity, respectively, and thus disruption of both the inner and outer membranes. The slopes of the increase in absorbance as a function of time provides the rate of enzyme activity. The enzyme activities in supernatants collected after incubation of bacteria with the quaternary ammonium surfactant, hexadecyltrimethylammonium bromide (HCMAB) was used as an internal reference for 100% membrane disruption. Enzyme activity for supernatants collected for cells incubated in the absence of peptide provided a reference for 0% membrane disruption. Bee venom peptide melittin was used as a positive control. […]
Sequence,"LPS binding (BC displacement), in words [1]",outer membrane disruption (β-lactamase activity) relative to HCMAB ([2]; HCMAB = 100%),time to reach maximum signal for nitrocefin hydrolysis [2],other results
KRAKKFFKKLK (SEQ ID NO: 4) [ATRA1-A],decreased LPS binding relative to ATRA1,,,
KRAKKFFKRLK (SEQ ID NO: 6) [ATRA1-AR],lowest LPS binding of all of the peptides tested,,,
"KRFKKFFKKLK (SEQ ID NO: 2) [ATRA1, first 11 residues of NA-CATH]",,,,"outer membrane disruption relative to HCMAB ([2]; 10 mM phosphate buffer, HCMAB = 100%): higher degree of disruption than ATRA1-R3W2"
"KRFKKFFKKLKGGVIGVTFPF (SEQ ID NO: 38) [ATRA1-HYD, ATRA1 with hydrophobic tail of NA-CATH joined at the C-terminus by a short -GG- segment]",,,,increase in affinity for LPS compared to the peptide lacking the hydrophobic tail [1]: ~2 fold
"KRFKKFFKKLKNSVKKRAKKFFKKPK (SEQ ID NO: 53) [NA-CATH26, first 26 residues of NA-CATH]",,significantly lower degrees of β-lactamase leakage,,decrease in affinity for LPS relative to NA-CATH ([1]; deletion of hydrophobic tail): ~30%
KRWKKWWKKWK (SEQ ID NO: 14) [ATRA1-W4],higher efficacy to bind LPS than the parent ATRA1,,approximately 30 mins,
RRFKRFFKRLK (SEQ ID NO: 9) [ATRA1-R3],higher LPS binding than ATRA1,in between those observed for ATRA1 and ATRA1-F,,
RRFRRFFRRLR (SEQ ID NO: 10) [ATRA1-R6],bound LPS more effectively than ATRA1-R3,,approximately 30 mins,
RRWKRFFKRWK (SEQ ID NO: 15) [ATRA1-R3W2],more effective in LPS binding than either of ATRA1-R3 and ATRA1-W2; also recorded: binds LPS marginally greater than ATRA1,Higher outer membrane disruption,approximately 30 mins,"outer membrane disruption (β-lactamase activity) relative to HCMAB ([2]; HCMAB = 100%, listed as ATRA-R3W2): approximately 4%"
"RRWKRFFKRWKGGVIGVTFPF (SEQ ID NO: 50) [ATRA1-R3W2-HYD, ATRA1-R3W2 with hydrophobic tail of NA-CATH joined by -GG-]",binds LPS with similar affinity as ATRA1-HYD,160%,,increase in affinity for LPS compared to the peptide lacking the hydrophobic tail [1]: ~2 fold
